Several values for one entry are separate records, joined by “and”; a condition that tells them apart may be missing. Identical values can stand only once.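 Exposure lasted 48 hours, with cells grown in 96-well plates and compounds tested at five concentrations. GI50 is the concentration that inhibits growth by half. Definition used: TGI = concentration required for complete inhibition of growth.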
Experiments:
Experiment in all cases: NCI-60 cell line screen, 48 h
KM12 colon = tested on: KM12 colon
OVCAR-8 ovarian = tested on: OVCAR-8 ovarian
UACC-62 melanoma = tested on: UACC-62 melanoma
SF-539 CNS = tested on: SF-539 CNS
U251 CNS = tested on: U251 CNS
RPMI-8226 leukemia = tested on: RPMI-8226 leukemia
LOX IMVI melanoma = tested on: LOX IMVI melanoma
SK-MEL-5 melanoma = tested on: SK-MEL-5 melanoma
NCI-H460 lung = tested on: NCI-H460 lung
HCT-15 colon = tested on: HCT-15 colon

In the case of `C[C@]12CC[C@H]3[C@@H](CCC4=CC(=O)CC[C@@]43C)[C@]1(O)CC[C@]2(O)C(=O)CO`, the TGI (KM12 colon) is reported as > 100 µM, the TGI (OVCAR-8 ovarian) is reported as > 100 µM and the TGI (UACC-62 melanoma) is reported as > 100 µM. The TGI (SF-539 CNS) was > 100 µM, the TGI (U251 CNS) was > 100 µM and the TGI (RPMI-8226 leukemia) was > 100 µM. For the same molecule, the TGI (LOX IMVI melanoma) was > 100 µM, the TGI (SK-MEL-5 melanoma) was > 100 µM and the TGI (NCI-H460 lung) was > 100 µM. For the same molecule, the TGI (HCT-15 colon) was > 100 µM.

With `Cc1c2ccccc2c(=O)n2c(-c3ccccn3)cccc12` the TGI (KM12 colon) was > 100 µM, the TGI (OVCAR-8 ovarian) was > 100 µM and the TGI (UACC-62 melanoma) was > 100 µM. The TGI (SF-539 CNS) was > 100 µM, the TGI (U251 CNS) was > 100 µM and the TGI (RPMI-8226 leukemia) was > 100 µM. The TGI (LOX IMVI melanoma) was > 100 µM, the TGI (SK-MEL-5 melanoma) was > 100 µM and the TGI (NCI-H460 lung) was > 100 µM. For the same molecule, the TGI (HCT-15 colon) was > 100 µM.

`CC(C)OC(=O)Nc1c([N+](=O)[O-])cc(C(F)(F)F)cc1[N+](=O)[O-]` was tested, and the TGI (KM12 colon) was > 100 µM, the TGI (OVCAR-8 ovarian) was > 100 µM and the TGI (UACC-62 melanoma) was > 100 µM. For the same molecule, the TGI (SF-539 CNS) was 70.3 µM, the TGI (U251 CNS) was > 100 µM and the TGI (RPMI-8226 leukemia) was > 100 µM. For the same molecule, the TGI (LOX IMVI melanoma) was > 100 µM, the TGI (SK-MEL-5 melanoma) was > 100 µM and the TGI (NCI-H460 lung) was > 100 µM. For the same molecule, the TGI (HCT-15 colon) was > 100 µM.

In the case of `CCOc1ccc2nc3cc(N)ccc3c(N)c2c1`, the GI50 (KM12 colon) is reported as 2.73 µM and 1.06 µM, the TGI (KM12 colon) is reported as 17.1 µM and 12.9 µM and the GI50 (OVCAR-8 ovarian) is reported as 2.68 µM and 2.55 µM. For the same molecule, the TGI (OVCAR-8 ovarian) was 15.8 µM and 13.1 µM, the GI50 (UACC-62 melanoma) was 4.7 µM and 2.56 µM and the TGI (UACC-62 melanoma) was 18.5 µM and 12 µM. The GI50 (SF-539 CNS) was 2.66 µM and 1.79 µM, the TGI (SF-539 CNS) was 13.6 µM and 6.38 µM and the GI50 (U251 CNS) was 0.534 µM and 0.476 µM. The TGI (U251 CNS) was 2.49 µM and 2.09 µM, the GI50 (RPMI-8226 leukemia) was 15.4 µM and 13.9 µM and the TGI (RPMI-8226 leukemia) was 43.5 µM and 38.4 µM. The GI50 (LOX IMVI melanoma) was 4.53 µM and 2.95 µM, the TGI (LOX IMVI melanoma) was 20 µM and 12.4 µM and the GI50 (SK-MEL-5 melanoma) was 3.31 µM and 3.03 µM. For the same molecule, the TGI (SK-MEL-5 melanoma) was 13.3 µM and 12.8 µM, the GI50 (NCI-H460 lung) was 3.13 µM and 3.9 µM and the TGI (NCI-H460 lung) was 12.6 µM and 15.7 µM. For the same molecule, the GI50 (HCT-15 colon) was 23.2 µM and 12.1 µM and the TGI (HCT-15 colon) was > 100 µM and 33.7 µM.

`O=S1(=O)[C@H](c2ccccc2)c2c(-c3ccccc3)sc(-c3ccccc3)c2[C@@H]1c1ccccc1` was tested, and the TGI (KM12 colon) was > 100 µM, the TGI (OVCAR-8 ovarian) was > 100 µM and the TGI (UACC-62 melanoma) was > 100 µM. For the same molecule, the TGI (SF-539 CNS) was > 100 µM, the TGI (U251 CNS) was > 100 µM and the TGI (RPMI-8226 leukemia) was > 100 µM. For the same molecule, the TGI (LOX IMVI melanoma) was > 100 µM, the TGI (SK-MEL-5 melanoma) was > 100 µM and the TGI (NCI-H460 lung) was > 100 µM. The TGI (HCT-15 colon) was > 100 µM.

Work on `COc1cccc2c1C(=O)c1c(O)c3c(c(O)c1C2=O)C[C@@](O)(/C(C)=N/NC(=O)c1cccc([N+](=O)[O-])c1)C[C@@H]3OC1CC(N)C(O)C(C)O1` (stereo not given in full) yielded a GI50 (KM12 colon) of 0.404 µM, a TGI (KM12 colon) of 10.9 µM and a GI50 (OVCAR-8 ovarian) of 0.366 µM. For the same molecule, the TGI (OVCAR-8 ovarian) was 21 µM, the GI50 (UACC-62 melanoma) was 0.199 µM and the TGI (UACC-62 melanoma) was 1.5 µM. The GI50 (SF-539 CNS) was 0.21 µM, the TGI (SF-539 CNS) was 1.22 µM and the GI50 (U251 CNS) was 0.22 µM. It also gave a TGI (U251 CNS) of 14 µM, a GI50 (RPMI-8226 leukemia) of 0.2 µM and a TGI (RPMI-8226 leukemia) of 1.86 µM. For the same molecule, the GI50 (LOX IMVI melanoma) was 0.146 µM, the TGI (LOX IMVI melanoma) was 15.4 µM and the GI50 (SK-MEL-5 melanoma) was 0.113 µM. For the same molecule, the TGI (SK-MEL-5 melanoma) was 0.361 µM, the GI50 (NCI-H460 lung) was 0.0548 µM and the TGI (NCI-H460 lung) was 12.9 µM. For the same molecule, the GI50 (HCT-15 colon) was 1.57 µM and the TGI (HCT-15 colon) was 14.2 µM.

In the case of `N#Cc1cnc2ccc(NCc3cnc[nH]3)cc2c1Nc1ccc(F)c(Cl)c1`, the GI50 (KM12 colon) is reported as > 100 µM, the TGI (KM12 colon) is reported as > 100 µM and the GI50 (OVCAR-8 ovarian) is reported as 4.51 µM. For the same molecule, the TGI (OVCAR-8 ovarian) was > 100 µM, the GI50 (UACC-62 melanoma) was 13.9 µM and the TGI (UACC-62 melanoma) was 75 µM. The GI50 (SF-539 CNS) was 14.7 µM, the TGI (SF-539 CNS) was > 100 µM and the GI50 (U251 CNS) was 8.96 µM. For the same molecule, the TGI (U251 CNS) was > 100 µM, the GI50 (RPMI-8226 leukemia) was > 100 µM and the TGI (RPMI-8226 leukemia) was > 100 µM. For the same molecule, the GI50 (LOX IMVI melanoma) was 5.62 µM, the TGI (LOX IMVI melanoma) was > 100 µM and the GI50 (SK-MEL-5 melanoma) was 19 µM. The TGI (SK-MEL-5 melanoma) was > 100 µM, the GI50 (NCI-H460 lung) was 10.3 µM and the TGI (NCI-H460 lung) was > 100 µM. For the same molecule, the GI50 (HCT-15 colon) was > 100 µM and the TGI (HCT-15 colon) was > 100 µM.

With `COC(=O)C1=C(C(=O)OC)C23CC4CCC2(C(=O)C1O3)C4(C)C` (stereo not given) the TGI (KM12 colon) was > 100 µM, the TGI (OVCAR-8 ovarian) was > 100 µM and the TGI (UACC-62 melanoma) was > 100 µM. For the same molecule, the TGI (SF-539 CNS) was > 100 µM, the TGI (U251 CNS) was > 100 µM and the TGI (RPMI-8226 leukemia) was > 100 µM. For the same molecule, the TGI (LOX IMVI melanoma) was > 100 µM, the TGI (SK-MEL-5 melanoma) was > 100 µM and the TGI (NCI-H460 lung) was > 100 µM. The TGI (HCT-15 colon) was > 100 µM.

From PubChem BioAssay (NCI)
